Results: patent publication US20190276871A1, “Antimicrobial Cartridges and Processes for Antimicrobial Susceptibility Testing” (SeLux Diagnostics, Inc., priority 2017, published 2019)
In brackets after ≈: the same amount, converted by molar mass. Where two headings read alike, the source gives them in different places.

Experiments:
[1] = test system: patient sample microbes; experiment: AST on 384-well patient cartridge panel made from Master Plate, antimicrobial panel 1; type: cell-based; conditions: master cartridge format
Source text: (§1) An assay setup comprises preparation of patient (target) cartridge by dispensing antimicrobials were from the master cartridge or intermediate serial dilution cartridges into one or more 384 reservoir patient cartridge, each antimicrobial in about 7 serial dilutions in triplicate, and covering the dynamic range of each antimicrobial that is known to be effective and therefore should be reported. The dilution range included the expected minimum inhibitory concentration (MIC) for each antimicrobial. But most importantly, dilution ranges, that is, antimicrobial concentrations beyond the range known to be effective are included in the patient cartridge as per the present invention.
(§2) The remaining reservoirs of the 384 well patient cartridge are utilized for setting up test controls: a no-antimicrobial control (negative control) was included for each antimicrobial compound; and a positive control was included for each antimicrobial set, where a microorganism that is not susceptible to the antimicrobial was added to the well. Each control set was also dispensed at least in duplicate per 384 well cartridge. Additional test controls may be included as deemed necessary by one of skill in the art. Equal amount of a patient sample was dispensed to each of the wells in the cartridge, except in the wells designated for no-sample control, if included. The patient cartridge was ready for determination of susceptibility of microbes from the patient sample to the twelve antimicrobials at the range of concentrations applied, simultaneously. Multiple such plates can be set up in parallel for testing samples from multiple patients, each patient sample per plate. An AST assay was performed on the prepared patient cartridges.
(§3) Shown in Table 5 and Table 6, MIC results for antimicrobial panels 1 and 2 respectively using a master cartridge format and a 384 well patient cartridge (column 3) agrees reliably with that run by standard 96 well AST assay plate (right hand column).

[2] = MIC, antimicrobial panel 1; cited from earlier work
[3] = test system: patient sample microbes; experiment: Standard 96-well AST assay plate, antimicrobial panel 1; type: cell-based
Source text: as §3

[4] = test system: patient sample microbes; experiment: Standard 96-well AST assay plate, antimicrobial panel 2; type: cell-based; design: unit not given here
Source text: as §3

[5] = MIC, antimicrobial panel 2; cited from earlier work
[6] = test system: patient sample microbes; experiment: AST on 384-well patient cartridge panel made from Master Plate, antimicrobial panel 2; type: cell-based; design: unit not given here; conditions: master cartridge format
Source text: as §1, §2, §3

[7] = test system: clinical isolate of S aureus; experiment: Broth microdilution reference method; type: cell-based; conditions: read-out: MICs obtained from the broth microdilution reference method
Protocol: The antibiotics shown are vancomycin, daptomycin, ceftaroline and levofloxacin, of which the MICs obtained from the broth microdilution reference method for this strain were 0.5, 0.25, 0.12, and 0.25 μg/ml, respectively. A clinical isolate of S aureus was used. Data represents the TRF signal in RFUs. Graphs in the top row contain data from 384-well plates. Graphs in the bottom row contain data from 96-well plates.

| Compound | MICs obtained from panel made from Master Plate [1] | Quality Control Range [2] | MICs obtained from 96-well Antibiotic Panel [3] | MICs obtained from 96-well Antibiotic Panel [4] | Quality Control Range [5] | MICs obtained from panel made from Master Plate [6] | MIC ([7]; clinical isolate of S aureus) | MIC [7] |
| --- | --- | --- | --- | --- | --- | --- | --- | --- |
| NCC[C@H](O)C(=O)N[C@@H]1C[C@H](N)[C@@H](O[C@H]2O[C@H](CN)[C@@H](O)[C@H](O)[C@H]2O)[C@H](O)[C@H]1O[C@H]1O[C@H](CO)[C@@H](O)[C@H](N)[C@H]1O [Amikacin] | 4 | 0.5-4 | 4 | – | – | – | – | – |
| CC1(C)S[C@@H]2[C@H](NC(=O)[C@H](N)c3ccccc3)C(=O)N2[C@H]1C(=O)O [Ampicillin] | 4 | 2-8 | 8 | 1 | 0.5-2 | 1 | – | – |
| CO/N=C(\C(=O)N[C@@H]1C(=O)N2C(C(=O)[O-])=C(C[N+]3(C)CCCC3)CS[C@H]12)c1csc(N)n1 [Cefepime] | ≤0.25 | 0.015-0.12 | ≤0.03 | – | – | – | – | – |
| CCO/N=C(\C(=O)N[C@@H]1C(=O)N2C(C(=O)[O-])=C(Sc3nc(-c4cc[n+](C)cc4)cs3)CS[C@H]12)c1nsc(N)n1 [Ceftaroline] | – | – | – | 0.25 | – | 0.5 | 0.12 µg/mL (≈ 0.198 µM) | – |
| CC(C)(O/N=C(\C(=O)N[C@@H]1C(=O)N2C(C(=O)[O-])=C(C[n+]3ccccc3)CS[C@H]12)c1csc(N)n1)C(=O)O [Ceftazidime] | <1 | 0.06-0.5 | 0.25 | 8 | 4-16 | 4 | – | – |
| CO/N=C(\C(=O)N[C@@H]1C(=O)N2C(C(=O)O)=C(CSc3nc(=O)c(=O)[nH]n3C)CS[C@H]12)c1csc(N)n1 [Ceftriaxone] | ≤0.125 | 0.03-0.12 | ≤0.12 | 4 | 1-8 | 2 | – | – |
| C[C@H]1COc2c(N3CCN(C)CC3)c(F)cc3c(=O)c(C(=O)O)cn1c23 [Levofloxacin] | ≤0.25 | – | ≤0.06 | 0.25 | – | ≤0.25 | 0.25 µg/mL (≈ 0.692 µM) | – |
| CC(=O)NC[C@H]1CN(c2ccc(N3CCOCC3)c(F)c2)C(=O)O1 [Linezolid] | – | – | – | 2 | 1-4 | 2 | – | – |
| Cc1onc(-c2ccccc2)c1C(=O)N[C@@H]1C(=O)N2[C@@H]1SC(C)(C)[C@@H]2C(=O)O [Oxacillin] | – | – | – | 0.5 | 0.12-0.5 | 0.5 | – | – |
| CO[C@H]1/C=C/O[C@@]2(C)Oc3c(C)c(O)c4c(O)c(c(/C=N/N5CCN(C)CC5)c(O)c4c3C2=O)NC(=O)/C(C)=C\C=C\[C@H](C)[C@H](O)[C@@H](C)[C@@H](O)[C@@H](C)[C@H](OC(C)=O)[C@@H]1C [Rifampin] | – | – | – | 0.004 | 0.004-0.015 | ≤0.25 | – | – |
| Cn1nnc(-c2ccc(-c3ccc(N4C[C@H](CO)OC4=O)cc3F)cn2)n1 [Tedizolid] | – | – | – | 0.5 | 0.25-1 | 0.25 | – | – |
| NC[C@H]1O[C@H](O[C@H]2[C@H](O)[C@@H](O[C@H]3O[C@H](CO)[C@@H](O)[C@H](N)[C@H]3O)[C@H](N)C[C@@H]2N)[C@H](N)C[C@@H]1O [Tobramycin] | 0.5 | 0.25-1 | 1 | – | – | – | – | – |
| CCCCCCCCCC(=O)N[C@@H](Cc1c[nH]c2ccccc12)C(=O)N[C@H](CC(N)=O)C(=O)N[C@@H](CC(=O)O)C(=O)N[C@@H]1C(=O)NCC(=O)N[C@@H](CCCN)C(=O)N[C@@H](CC(=O)O)C(=O)N[C@H](C)C(=O)N[C@@H](CC(=O)O)C(=O)NCC(=O)N[C@H](CO)C(=O)N[C@@H]([C@H](C)CC(=O)O)C(=O)N[C@@H](CC(=O)c2ccccc2N)C(=O)O[C@@H]1C [daptomycin] | – | – | – | – | – | – | 0.25 µg/mL (≈ 0.154 µM) | – |
| CN[C@H](CC(C)C)C(=O)N[C@H]1C(=O)N[C@@H](CC(N)=O)C(=O)N[C@H]2C(=O)N[C@H]3C(=O)N[C@H](C(=O)N[C@H](C(=O)O)c4cc(O)cc(O)c4-c4cc3ccc4O)[C@H](O)c3ccc(c(Cl)c3)Oc3cc2cc(c3O[C@@H]2O[C@H](CO)[C@@H](O)[C@H](O)[C@H]2O[C@H]2C[C@](C)(N)[C@H](O)[C@H](C)O2)Oc2ccc(cc2Cl)[C@H]1O [vancomycin] | – | – | – | – | – | – | – | 0.5 µg/mL (≈ 0.345 µM) |
| Ampicillin-Sulbactam | 8 µg/mL | 2-8 | 8 µg/mL | – | – | – | – | – |
| Piperacillin-tazobactam | ≤ 1 µg/mL | 1-4 | 4 µg/mL | – | – | – | – | – |
